Consider 26 molecules from patent US9428507B2, “Compounds for the treatment of malaria” (The Broad Institute, Inc., priority 2013, dated 2016).

This test has as its system Dd2 strain of P. falciparum. Kind of test: Activity against the Dd2 strain of P. falciparum (SYBR Green I, 72-h incubation). In kind it is cell-based. To be noted: Plasmodium falciparum, DD2, 72 h, read-out: EC^50 Dd2. An outline of the steps:
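Dd2 parasites at 1% parasitemia and 1.0% hematocrit in albumax II screening medium, 72 h at 37° C under 93% N2/4% CO2/3% O2; final DMSO 0.125%. Growth read as SYBR Green I fluorescence (485/530 nm) after lysis and 24 h staining. 20 μM mefloquine defined background, DMSO baseline.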
As for `CCC(=O)N1CCC2(CC1)CN(Cc1cccc(OC)c1)[C@@H](CO)c1[nH]c3cc(OC)ccc3c12` [Compound 107, (R)-1-(1′-(hydroxymethyl)-7′-methoxy-2′-(3-methoxybenzyl)-1′,2′,3′,9′-tetrahydrospiro [piperidine-4,4′-pyrido[3,4-b]indol]-1-yl)propan-1-one], the EC50 was found to be 2210 nM.

Take `COc1ccc2c3c(n(C)c2c1)[C@@H](CO)N(C(=O)c1ccc(F)cc1)CC31CN(C(=O)Nc2ccc(F)cc2)C1` [Compound 108, (S)-2′-(4-fluorobenzoyl)-N-(4-fluorophenyl)-1′-(hydroxymethyl)-7′-methoxy-9′-methyl-1′,2′,3′,9′-tetrahydrospiro[azetidine-3,4′-pyrido[3,4-b]indole]-1-carboxamide]: the EC50 is 1220 nM.

Consider `COc1ccc2c3c(n(C)c2c1)[C@@H](CO)N(CC1CCCCC1)CC31CCN(Cc2nccs2)CC1` [Compound 109, (S)-(2′-(cyclohexylmethyl)-7′-methoxy-9′-methyl-1-(thiazol-2-ylmethyl)-1′,2′,3′,9′-tetrahydrospiro [piperidine-4,4′-pyrido[3,4-b]indol]-1′-yl)methanol], for which the EC50 worked out at 1030 nM.

On to `COc1ccc2c3c(n(C)c2c1)[C@@H](CO)N(C(=O)C1CCC1)CC31CN(C(=O)Nc2cccc(F)c2)C1` [Compound 110, (S)-2′-(cyclobutanecarbonyl)-N-(3-fluorophenyl)-1′-(hydroxymethyl)-7′-methoxy-9′-methyl-1′,2′,3′,9′-tetrahydrospiro [azetidine-3,4′-pyrido[3,4-b]indole]-1-carboxamide], for which the EC50 was found to be 779 nM.

As for `COc1ccc2c3c(n(C)c2c1)[C@H](CO)N(CC1CCOCC1)CC31CCN(Cc2nccs2)CC1` [Compound 112, (R)-(7′-methoxy-9′-methyl0-2′-((tetrahydro-2H-pyran-4-yl)methyl)-1-(thiazol-2-ylmethyl)-1′,2′,3′,9′-tetrahydrospiro [piperidine-4,4′-pyrido [3,4-b]indol]-1′-yl) methanol], the EC50 was found to be 1100 nM.

`CCC(=O)N1CC2(CCN(C(=O)Nc3ccccc3F)CC2)c2c([nH]c3cc(OC)ccc23)[C@H]1CO` [Compound 113, (S)-N-(2-fluorophenyl)-1′-(hydroxymethyl)-7′-methoxy-2′-propionyl-1′,2′,3′,9′-tetrahydrospiro [piperidine-4,4′-pyrido[3,4-b]indole]-1-carboxamide]: the EC50 is 1100 nM.

For `COc1ccc2c3c(n(C)c2c1)[C@H](CO)N(C(=O)Nc1ccc(F)cc1)CC31CCN(S(=O)(=O)c2cccc(F)c2)CC1` [Compound 114, (R)-N-(4-fluorophenyl)-1-((3-fluorophenyl)sulfonyl)-1′-(hydroxymethyl)-7′-methoxy-9′-methyl-3′,9′-dihydrospiro [piperidine-4,4′-pyrido[3,4-b]indole]-2′(1′H)-carboxamide], the EC50 was determined as 951 nM.

With `COc1ccc2c3c(n(C)c2c1)[C@@H](CO)N(C(=O)c1ccccc1)CC31CCN(C(=O)c2ccccc2)CC1` [Compound 115, (S)-(1′-(hydroxymethyl)-7′-methoxy-9′-methylspiro [piperidine-4,4′-pyrido[3,4-b]indol]-1,2′(1′ H,3′H,9′H)-diyl)bis(phenylmethanone)], the EC50 is 1040 nM.

On to `CCC(=O)N1CCC2(CC1)CN(S(=O)(=O)c1ccccc1)[C@@H](CO)c1[nH]c3cc(OC)ccc3c12` [Compound 116, (R)-1-(1′-(hydroxymethyl)-7′-methoxy-2′-(phenylsulfonyl)-1′,2′,3′,9′-tetrahydrospiro [piperidine-4,4′-pyrido[3,4-b]indol]-1-yl) propan-1-one], for which the EC50 came out at 1470 nM.

As for `COc1ccc2c3c(n(C)c2c1)[C@H](CO)N(C(=O)Nc1ccc(F)cc1)CC31CCN(Cc2cccnc2)CC1` [Compound 117, (R)-N-(4-fluorophenyl)-1′-(hydroxymethyl)-7′-methoxy-9′-methyl-1-(pyridin-3-ylmethyl)-3′,9′-dihydrospiro[piperidine-4,4′-pyrido[3,4-b]indole]-2′(1′H)-carboxamide], the EC50 came out at 1610 nM.

Turning to `CCC(=O)N1CCC2(CC1)CN(Cc1cc(F)ccc1F)[C@H](CO)c1[nH]c3cc(OC)ccc3c12` [Compound 118, (S)-1-(2′-(2,5-difluorobenzyl)-1′-(hydroxymethyl)-7′-methoxy-1′,2′,3′,9′-tetrahydrospiro [piperidine-4,4′-pyrido[3,4-b]indol]-1-yl) propan-1-one], the EC50 stood at 1960 nM.

For the molecule `COc1ccc(S(=O)(=O)N2CCC3(CC2)CN(Cc2ccncc2)[C@H](CO)c2[nH]c4cc(OC)ccc4c23)cc1` [Compound 119, (S)-(7′-methoxy-1-((4-methoxyphenyl)sulfonyl)-2′-(pyridin-4-ylmethyl)-1′,2′,3′,9′-tetrahydrospiro [piperidine-4,4′-pyrido[3,4-b]indol]-1′-yl) methanol], the EC50 turned out to be 1720 nM.

Regarding `CCCC(=O)N1CC2(C1)CN(S(=O)(=O)c1ccc(C)cc1)[C@@H](CO)c1[nH]c3cc(OC)ccc3c12` [Compound 120, (R)-1-(1′-(hydroxymethyl)-7′-methoxy-2′-tosyl-1′,2′,3′,9′-tetrahydrospiro[azetidine-3,4′-pyrido[3,4-b]indol]-1-yl)butan-1-one], the EC50 was 1650 nM.

On to `COc1ccc2c3c([nH]c2c1)[C@@H](CO)N(C(=O)CN(C)C)CC31CCN(CC2CCCCC2)CC1` [Compound 121, (S)-1-(1-(cyclohexylmethyl)-1′-(hydroxymethyl)-7′-methoxyspiro [piperidine-4,4′-pyrido[3,4-b]indol]-2′(1′H,3′H,9′H)-yl)-2-(dimethylamino) ethanone], for which the EC50 is 360 nM.

Take `COc1ccc2c3c([nH]c2c1)[C@H](CO)N(Cc1ccccn1)CC31CCN(Cc2cccc(F)c2)CC1` [Compound 122]: the EC50 was 421 nM.

With `COc1ccc2c3c(n(C)c2c1)[C@H](CO)N(C(=O)Nc1ccc(F)cc1)CC31CN(C(=O)c2ccc3c(c2)OCO3)C1` [Compound 123, (R)-1-(benzo[d] [1,3]dioxole-5-carbonyl)-N-(4-fluorophenyl)-1′-(hydroxymethyl)-7′-methoxy-9′-methyl-3′,9′-dihydrospiro [azetidine-3,4′-pyrido[3,4-b]indole]-2′(1′H)-carboxamide], the EC50 is 683 nM.

`CCS(=O)(=O)N1CCC2(CC1)CN(S(=O)(=O)c1ccc(C)cc1)[C@@H](CO)c1[nH]c3cc(OC)ccc3c12` [Compound 124, (R)-(1-(ethylsulfony1)-7′-methoxy-2′-tosyl-1′,2′,3′,9′-tetrahydrospiro [piperidine-4,4′-pyrido[3,4-b]indol]-1′-yl)methanol]: the EC50 is 880 nM.

`COc1ccc2c3c(n(C)c2c1)[C@@H](CO)N(C(=O)C1CC1)CC31CCN(C(=O)Nc2cccc(F)c2)CC1` [Compound 125, (S)-2′-(cyclopropanecarbonyl)-N-(3-fluorophenyl)-1′-(hydroxymethyl)-7′-methoxy-9′-methyl-1′,2′,3′,9′-tetrahydrospiro [piperidine-4,4′-pyrido[3,4-b]indole]-1-carboxamide]: the EC50 turned out to be 343 nM.

Regarding `COc1ccc(NC(=O)N2CC3(C2)CN(C(=O)C2CCC2)[C@H](CO)c2c3c3ccc(OC)cc3n2C)cc1` [Compound 126, (S)-2′-(cyclobutanecarbonyl)-1′-(hydroxymethyl)-7′-methoxy-N-(4-methoxyphenyl)-9′-methyl-1′,2′,3′,9′-tetrahydrospiro [azetidine-3,4′-pyrido[3,4-b]indole]-1-carboxamide], the EC50 amounted to 437 nM.

Take `COc1cccc(CN2CC3(CCN(Cc4ccccn4)CC3)c3c([nH]c4cc(OC)ccc34)[C@@H]2CO)c1` [Compound 127, (R)-(7′-methoxy-2′-(3-methoxybenzyl)-1-(pyridin-2-ylmethyl)-1′,2′,3′,9′-tetrahydrospiro [pipendine-4,4′-pyrido[3,4-b]indol]-1′-yl) methanol]: the EC50 was found to be 1790 nM.

Turning to `COc1ccc2c3c([nH]c2c1)[C@H](CO)N(C(=O)Nc1ccc(F)cc1)CC31CCN(S(=O)(=O)c2cccc(F)c2)CC1` [Compound 128, (R)-N-(4-fluorophenyl)-1-((3-fluorophenyl)sulfonyl)-1′-(hydroxymethyl)-7′-methoxy-3′,9′-dihydrospiro [piperidine-4,4′-pyrido[3,4-b]indole]-2′(1′H)-carboxamide], the EC50 amounted to 750 nM.

With `COc1ccc2c3c(n(C)c2c1)[C@@H](CO)N(C(=O)c1ccc(F)cc1)CC31CCN(C(=O)Nc2ccc(F)cc2)CC1` [Compound 129], the EC50 was found to be 794 nM.

Take `COc1ccc2c3c(n(C)c2c1)[C@@H](CO)NCC31CCN(Cc2ccc(-c3ccccn3)cc2)CC1` [Compound 130, (S)-(7′-methoxy-9′-methyl-1-(4-(pyridin-2-yl)benzyl)-1′,2′,3′,9′-tetrahydrospiro[piperidine-4,4′-pyrido[3,4-b]indol]-1′-yl)methanol]: the EC50 was 439 nM.

`COc1ccc2c3c(n(C)c2c1)[C@H](CO)N(C(=O)Nc1ccc(F)cc1)CC31CCN(C(=O)c2ccc3c(c2)OCO3)CC1` [Compound 131, (R)-1-(benzo[d] [1,3]dioxole-5-carbonyl)-N-(4-fluorophenyl)-1′-(hydroxymethyl)-7′-methoxy-9′-methyl-3′,9′-dihydrospiro [piperidine-4,4′-pyrido[3,4-b]indole]-2′(1′H)-carboxamide]: the EC50 was 892 nM.

On to `COc1ccc2c3c(n(C)c2c1)[C@@H](CO)N(Cc1ccc(Cl)cc1)CC31CCN(CC2CC2)CC1` [Compound 132, (S)-(2′-(4-chlorobenzyl)-1-(cyclopropylmethyl)-7′-methoxy-9′-methyl-1′,2′,3′,9′-tetrahydrospiro [piperidine-4,4′-pyrido[3,4-b]indol]-1′-yl) methanol], for which the EC50 came out at 1670 nM.

For `COc1ccc2c3c([nH]c2c1)[C@@H](CO)N(Cc1ccncc1)CC31CCN(Cc2ccc(-c3ccccn3)cc2)CC1` [Compound 133, (S)-(7′-methoxy-1-(4-(pyridin-2-yl)benzy1)-2′-(pyridin-4-ylmethyl)-1′,2′,3′,9′-tetrahydrospiro [piperidine-4,4′-pyrido[3,4-b]indol]-1′-yl)methanol], the EC50 was 613 nM.
